These results are taken from PubChem BioAssay AID1259407 (Chemical Carcinogenesis Research Information System (CCRIS), 2018).

The subject of the data set is CCRIS mutagenicity, Ames/micronucleus/aberration tests. Nature of the data set: CCRIS mutagenicity studies.
Setting [1] is: Test System: AMES SALMONELLA TYPHIMURIUM, Strain/Indicator: TA100, Metabolic Activation: NONE, Method: STANDARD PLATE.
Setting [2] is: Test System: AMES SALMONELLA TYPHIMURIUM, Strain/Indicator: TA98, Metabolic Activation: NONE, Method: STANDARD PLATE.
Setting [3] is: Test System: AMES SALMONELLA TYPHIMURIUM, Strain/Indicator: TA98, Metabolic Activation: RAT, LIVER, S-9, AROCLOR 1254, Method: STANDARD PLATE.
Where [4] appears, read: Test System: AMES SALMONELLA TYPHIMURIUM, Strain/Indicator: TA98, Metabolic Activation: RAT, LIVER, S-9, Method: STANDARD PLATE.
The mark [5] stands for this setting: Test System: AMES SALMONELLA TYPHIMURIUM, Strain/Indicator: TA98, Metabolic Activation: S-9, Method: STANDARD PLATE.
Setting [6] is: Test System: AMES SALMONELLA TYPHIMURIUM, Strain/Indicator: TA100, Metabolic Activation: S-9, Method: STANDARD PLATE.

Activity calls are given as the source filed them. The rule behind the calls is not given here.

In the case of `O=[N+]([O-])c1cc(Cl)ccc1Cl`, the mutagenic call is “active; positive (structural changes); authors report equivocal results for ploidy chang” (End Point: IN VITRO CHROMOSOMAL ABERRATIONS, Test System: CHL CELLS, Metabolic Activation: RAT, LIVER, S-9, SODIUM PHENOBARBITAL AND 5,6-BENZOFLAVONE); “inactive; negative” (Test System: AMES SALMONELLA TYPHIMURIUM, Strain/Indicator: TA98, Metabolic Activation: NONE, Method: PREINCUBATION); “inactive; negative” (Test System: AMES SALMONELLA TYPHIMURIUM, Strain/Indicator: TA98, Metabolic Activation: RAT LIVER S-9, PHENOBARBITAL AND BETA-NAPHTHOFLAVONE, Method: PREINCUBATION); “inactive; negative” (Test System: AMES SALMONELLA TYPHIMURIUM, Strain/Indicator: TA98, Metabolic Activation: RAT, LIVER, S-9, KANECHLOR 500, Method: PREINCUBATION); “inactive; negative” under setting [1]; “active; positive” (Test System: AMES SALMONELLA TYPHIMURIUM, Strain/Indicator: TA100, Metabolic Activation: RAT LIVER S-9, PHENOBARBITAL AND BETA-NAPHTHOFLAVONE, Method: PREINCUBATION). Besides, the mutagenic call reads like this: (Test System: AMES SALMONELLA TYPHIMURIUM, Strain/Indicator: TA100, Metabolic Activation: RAT, LIVER, S-9, KANECHLOR 500, Method: PREINCUBATION) “active; positive”; (Test System: AMES SALMONELLA TYPHIMURIUM, Strain/Indicator: TA1535, Metabolic Activation: NONE, Method: PREINCUBATION) “inactive; negative”; (Test System: AMES SALMONELLA TYPHIMURIUM, Strain/Indicator: TA1535, Metabolic Activation: RAT LIVER S-9, PHENOBARBITAL AND BETA-NAPHTHOFLAVONE, Method: PREINCUBATION) “inactive; negative”; (Test System: AMES SALMONELLA TYPHIMURIUM, Strain/Indicator: TA1537, Metabolic Activation: NONE, Method: PREINCUBATION) “inactive; negative”; (Test System: AMES SALMONELLA TYPHIMURIUM, Strain/Indicator: TA1537, Metabolic Activation: RAT LIVER S-9, PHENOBARBITAL AND BETA-NAPHTHOFLAVONE, Method: PREINCUBATION) “inactive; negative”; (Test System: AMES SALMONELLA TYPHIMURIUM, Strain/Indicator: TA1538, Metabolic Activation: NONE, Method: PREINCUBATION) “inactive; negative”. For the same molecule, the mutagenic call is “inactive; negative” (Test System: AMES SALMONELLA TYPHIMURIUM, Strain/Indicator: TA1538, Metabolic Activation: RAT LIVER S-9, PHENOBARBITAL AND BETA-NAPHTHOFLAVONE, Method: PREINCUBATION); “inactive; negative” (Test System: E.COLI, Strain/Indicator: WP2UVRA, Metabolic Activation: NONE, Method: PREINCUBATION); “inactive; negative” (Test System: E.COLI, Strain/Indicator: WP2UVRA, Metabolic Activation: RAT LIVER S-9, PHENOBARBITAL AND BETA-NAPHTHOFLAVONE, Method: PREINCUBATION).

As for `CCOc1cc(N=Nc2ccc(N(CCO)CCO)cc2)ccc1N=Nc1c(S(=O)(=O)O)cc2ccc(N)cc2c1O`, the mutagenic call under setting [2] is “inactive; negative”; the mutagenic call under setting [3] was “active; positive”; the mutagenic call under setting [1] is “inactive; negative”; the mutagenic call (Test System: AMES SALMONELLA TYPHIMURIUM, Strain/Indicator: TA100, Metabolic Activation: RAT, LIVER, S-9, AROCLOR 1254, Method: STANDARD PLATE) is “inactive; negative”; the mutagenic call (Test System: AMES SALMONELLA TYPHIMURIUM, Strain/Indicator: TA1538, Metabolic Activation: RAT, LIVER, S-9, AROCLOR 1254, Method: STANDARD PLATE) is “active; positive”.

For `CNC(=O)N(O)C(C)=O`, the mutagenic call reads like this: under setting [2], “active; positive”; under setting [4], “active; positive”; under setting [1], “active; positive”.

Consider `COc1cc2c(c3oc4cccc(O)c4c(=O)c13)[C@@H]1CCO[C@@H]1O2`, for which the mutagenic call (Test System: AMES SALMONELLA TYPHIMURIUM, Strain/Indicator: TA98, Metabolic Activation: RAT, LIVER, S-9, PHENOBARBITAL, Method: STANDARD PLATE) was “inactive; negative” and the mutagenic call (Test System: AMES SALMONELLA TYPHIMURIUM, Strain/Indicator: TA100, Metabolic Activation: RAT, LIVER, S-9, PHENOBARBITAL, Method: STANDARD PLATE) is “inactive; negative”.

For `O=C1OC(O)C(Cl)=C1Cl` (centres undefined), the mutagenic call was “active; positive” under setting [1] and “active; positive” (Test System: UDS RAT HEPATOCYTES, Strain/Indicator: THYMIDINE INCORPORATION, Metabolic Activation: NONE, Method: AUTORADIOGRAPHY).

As for `NC(=S)NNC(N)=S`, the mutagenic call (End Point: IN VITRO CHROMOSOMAL ABERRATIONS, Test System: CHINESE HAMSTER OVARY CELLS, Metabolic Activation: RAT, LIVER, S-9, AROCLOR 1254) is “inactive; negative”.

Consider `CSCNc1ccccc1`, for which the mutagenic call (Test System: AMES SALMONELLA TYPHIMURIUM, Strain/Indicator: TA100, Metabolic Activation: NONE, Method: SPOT TEST) is “active; positive”; the mutagenic call (Test System: AMES SALMONELLA TYPHIMURIUM, Strain/Indicator: TA100, Metabolic Activation: RAT, LIVER, S-9, AROCLOR 1254, Method: SPOT TEST) is “active; positive”; the mutagenic call (Test System: AMES SALMONELLA TYPHIMURIUM, Strain/Indicator: TA102, Metabolic Activation: NONE, Method: SPOT TEST) is “active; positive”; the mutagenic call (Test System: AMES SALMONELLA TYPHIMURIUM, Strain/Indicator: TA102, Metabolic Activation: RAT, LIVER, S-9, AROCLOR 1254, Method: SPOT TEST) was “active; positive”.

`O=C(NC(Cc1cc(=O)[nH]c2ccccc12)C(=O)O)c1ccc(Cl)cc1` (centres undefined): the mutagenic call was “inactive; negative” under setting [2]; “inactive; negative” under setting [5]; “inactive; negative” under setting [1]; “inactive; negative” under setting [6]; “inactive; negative” (Test System: AMES SALMONELLA TYPHIMURIUM, Strain/Indicator: TA1535, Metabolic Activation: NONE, Method: STANDARD PLATE); “inactive; negative” (Test System: AMES SALMONELLA TYPHIMURIUM, Strain/Indicator: TA1535, Metabolic Activation: S-9, Method: STANDARD PLATE). The mutagenic call by setting is: (Test System: AMES SALMONELLA TYPHIMURIUM, Strain/Indicator: TA1537, Metabolic Activation: NONE, Method: STANDARD PLATE) “inactive; negative”; (Test System: AMES SALMONELLA TYPHIMURIUM, Strain/Indicator: TA1537, Metabolic Activation: S-9, Method: STANDARD PLATE) “inactive; negative”; (Test System: AMES SALMONELLA TYPHIMURIUM, Strain/Indicator: TA1538, Metabolic Activation: NONE, Method: STANDARD PLATE) “inactive; negative”; (Test System: AMES SALMONELLA TYPHIMURIUM, Strain/Indicator: TA1538, Metabolic Activation: S-9, Method: STANDARD PLATE) “inactive; negative”; (Test System: E.COLI, Strain/Indicator: WP2 UVRA, Metabolic Activation: NONE, Method: STANDARD PLATE) “inactive; negative”; (Test System: E.COLI, Strain/Indicator: WP2 UVRA, Metabolic Activation: S-9, Method: STANDARD PLATE) “inactive; negative”.

Turning to `Cc1ccc(N=Nc2c(O)ccc3ccccc23)cc1C`, the mutagenic call runs as follows: under setting [2], “inactive; negative”; under setting [4], “inactive; negative”; under setting [1], “inactive; negative”; (Test System: AMES SALMONELLA TYPHIMURIUM, Strain/Indicator: TA100, Metabolic Activation: RAT, LIVER, S-9, Method: STANDARD PLATE) “inactive; negative”.

As for `COO`, the mutagenic call by setting is: under setting [1], “inactive; negative”; (Test System: AMES SALMONELLA TYPHIMURIUM, Strain/Indicator: TA102, Metabolic Activation: NONE, Method: STANDARD PLATE) “active; positive”.

Regarding `Cc1cnc2c(C)c(C)c3c(nc(N)n3C)c2n1`, under setting [3], the mutagenic call is “active; positive”.

As for `N#Cc1cccc(/C=C\c2ccc([N+](=O)[O-])cc2)c1`, the mutagenic call runs as follows: (Test System: AMES SALMONELLA TYPHIMURIUM, Strain/Indicator: TA98(NR), Metabolic Activation: NONE, Method: STANDARD PLATE) “active; positive”; (Test System: AMES SALMONELLA TYPHIMURIUM, Strain/Indicator: TA98 (NR), Metabolic Activation: S-9, Method: STANDARD PLATE) “active; positive”; under setting [2], “active; positive”; under setting [5], “active; positive”; (Test System: AMES SALMONELLA TYPHIMURIUM, Strain/Indicator: TA100 (NR), Metabolic Activation: NONE, Method: STANDARD PLATE) “inactive; negative”; (Test System: AMES SALMONELLA TYPHIMURIUM, Strain/Indicator: TA100 (NR), Metabolic Activation: S-9, Method: STANDARD PLATE) “inactive; negative”. In addition, the mutagenic call by setting is: under setting [1], “active; positive”; under setting [6], “active; positive”.
